Consider 3 compounds from PubChem BioAssay (NCI).

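Compound exposure: 48 hours, 5 concentrations, 96-well plates. The concentration for full growth arrest is given as TGI.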 A value given as a limit tells only on which side of the number the result lay.

Some test systems named below: DU-145 prostate; HCT-116 colon; KM12 colon; LOX IMVI melanoma; MDA-N; OVCAR-4 ovarian; OVCAR-5 ovarian; SK-MEL-5 melanoma; TK-10 renal; U251 CNS.
Experiment in all cases: growth of human tumour cells (NCI), 48 h

As to `COc1ccc(NC(=S)c2ccoc2C)cc1CC(=O)OC(C)C`, the TGI in the experiment with DU-145 prostate is above 100 µM; in the experiment on HCT-116 colon, above 100 µM; in the experiment with KM12 colon, above 100 µM; in the experiment on LOX IMVI melanoma, 39.2 µM; in the experiment on MDA-N it was above 100 µM; in the experiment on OVCAR-4 ovarian, above 100 µM. Further, the TGI with OVCAR-5 ovarian, with SK-MEL-5 melanoma, with TK-10 renal and in the experiment with U251 CNS was above 100 µM throughout.
As to `CCOC(=O)c1c(NC(=S)Nc2ccccc2)sc2c1CCOC2`, the TGI in the experiment with DU-145 prostate, in the experiment on HCT-116 colon, in the experiment with KM12 colon, in the experiment with LOX IMVI melanoma, with MDA-N and in the experiment on OVCAR-4 ovarian was above 100 µM each time. In addition, the TGI in the experiment on OVCAR-5 ovarian, in the experiment with SK-MEL-5 melanoma, in the experiment on TK-10 renal and in the experiment with U251 CNS was above 100 µM throughout.
Consider `C#CC1(O)CCCCCCCCC2(CCCCCCCC1)OCCO2`, for which the TGI in the experiment on DU-145 prostate was 31.1 µM; in the experiment on HCT-116 colon, 30.4 µM; in the experiment on KM12 colon it was 34.6 µM; in the experiment on LOX IMVI melanoma, 38.1 µM; in the experiment with MDA-N, 35.9 µM; in the experiment on OVCAR-4 ovarian it was 19.5 µM. The TGI in the experiment on OVCAR-5 ovarian worked out at 37.8 µM; with SK-MEL-5 melanoma it was 33.4 µM; with TK-10 renal, 37 µM; in the experiment on U251 CNS, 30.8 µM.
